Measured values reported in the PolyMetriX glass transition set.

Structure (SMILES)	glass transition temperature [°C]
*CCOCCOCCOC(=O)CCSCCC(=O)O* (repeat unit)	-35.00
*CC(CC(C)C)S(*)(=O)=O (repeat unit)	23.00
*CC(*)(C)C(=O)OCCN(C)c1ccc(/N=N/c2ccc([N+](=O)[O-])cc2)cc1 (repeat unit)	110.00
*CCCC(C)(C)CNC(=O)C(=O)N* (repeat unit)	109.00
*/C(C)=C(/*)[Si](C)(C)C (repeat unit)	75.00
*CC(*)(C)C(=O)OCCCCCCCCCCOc1ccc(/N=N/c2ccc(F)cc2)cc1 (repeat unit)	49.00
*Oc1cc(CCCCCC)cc(OC(=O)c2cccc(C(*)=O)c2)c1 (repeat unit)	67.50
*CCCCCCOP(=O)(/N=N/c1ccc(COC(=O)c2cc(C(=O)OCc3ccc(/N=N/P(=O)(O*)OC)cc3)cc(C(C)(C)C)c2)cc1)OC (repeat unit)	62.00
*Oc1ccc(CC(NC(=O)Cc2ccc(OC(=O)CCCCCCC(*)=O)cc2)C(=O)OCCCCCC)cc1 (repeat unit)	27.00
*c1nc(-c2ccccc2)nc(N(c2ccccc2)c2ncnc(N(*)c3ccccc3)n2)n1 (repeat unit)	279.00
*/C=C(/c1ccc(*)cc1)c1ccc(C(F)(F)F)cc1 (repeat unit)	199.00
*Oc1ccc(C2(c3ccc(OC(*)=O)cc3)CCCC2)cc1 (repeat unit)	166.00
*CCN(*)C(=O)CCCCCCCCCCC (repeat unit)	10.00
*/C=C/c1sc(-c2ccc3c(c2)C(CCCCCC)(CCCCCC)c2cc(-c4sc(/C=C/C5=CC(=C(C#N)C#N)C=C(*)O5)c(CCCCCC)c4CCCCCC)ccc2-3)c(CCCCCC)c1CCCCCC (repeat unit)	115.00
*C/C=C/C[Si](*)(C)c1ccccc1 (repeat unit)	-1.00
*c1cccc(-c2nc3ccc(-c4ccc5nc(*)sc5c4)cc3s2)c1 (repeat unit)	495.00
*CCCCCCCCCCOC(=O)Nc1ccc(C)c(NC(=O)O*)c1 (repeat unit)	18.00
*CC(*)(C)C(N)=O (repeat unit)	88.70

Structure (SMILES)	glass transition temperature [°C]
*CC(*)CCCCCCCCCC (repeat unit)	-6.00
*C1(F)OC(C(F)(F)F)(C(F)(F)Cl)OC1(*)F (repeat unit)	330.00
*CCCCCCCCCCCNC(=O)CCCCCCCCCCCCCCCCCCC(=O)N* (repeat unit)	29.00
*NNC(=O)/C=C/C(=O)NCCCCCCNC(=O)/C=C/C(*)=O (repeat unit)	102.40
*CC1CCCC(CNC(=O)c2cc(C(=O)N*)cc(C(C)(C)C)c2)C1 (repeat unit)	200.00
*OC(F)(F)C(*)(F)F (repeat unit)	-48.00
*CC(*)(C)C(=O)OCCO[Si](C)(C)C (repeat unit)	89.00
*c1cc(CCOc2ccc(/N=N/c3ccc(C#N)cc3)cc2)c(*)s1 (repeat unit)	73.00
*CC(*)c1ccc(C(=O)Cc2ccccc2)cc1 (repeat unit)	78.00
*CCCCCNC(=O)C(OC)C(OC)C(=O)N* (repeat unit)	113.00
*Oc1ccc(C2(c3ccc(OC(*)=O)c(C)c3)CCCCC2)cc1C (repeat unit)	137.50
*Oc1cc(Cl)c(C(C)(C)c2c(Cl)cc(OC(*)=O)cc2Cl)c(Cl)c1 (repeat unit)	240.00
*CC(*)(C)C(=O)OCCOCCOCC1(C)COCCOCCOCCOC1 (repeat unit)	10.00
*Nc1ccc(NC(=O)c2ccc(NC(=O)CCCCCCCCC(=O)Nc3ccc(C(*)=O)cc3)cc2)cc1C(=O)OCCCCCCCCCCCCCC (repeat unit)	225.00
*c1cc(CCCCBr)c(*)s1 (repeat unit)	19.00
*N=P(N=P(N=S(*)(=O)NCC=C)(NCC=C)NCC=C)(NCC=C)NCC=C (repeat unit)	-18.00
*CCCOC(=O)CCC(=O)O* (repeat unit)	-34.70

Further lines, results first:

glass transition temperature [°C]	Structure (SMILES)
297.00	*c1ccc(-c2ccc(C3(*)c4ccccc4-c4ccccc43)cc2)cc1 (repeat unit)
251.00	*c1ccc(Oc2ccc(N3C(=O)c4ccc(Oc5ccc6c(c5)C(=O)N(*)C6=O)cc4C3=O)cc2Br)c(Br)c1 (repeat unit)
128.00	*CC(*)C(=O)Nc1ccc2c(c1)C(=O)c1ccccc1C2=O (repeat unit)
193.00	*c1ccc(Oc2ccc(N3C(=O)C(Cl)=C(Oc4ccc(C(c5ccc(OC6=C(Cl)C(=O)N(*)C6=O)cc5)(C(F)(F)F)C(F)(F)F)cc4)C3=O)cc2)cc1 (repeat unit)
169.00	*Oc1ccc(C(=O)c2ccc(Oc3ccc(C(=O)c4ccc(C(=O)c5ccc(*)cc5)cc4)cc3)cc2)cc1 (repeat unit)
119.00	*Oc1ccc(Oc2ccc(Oc3cccc(C(=O)Oc4ccc(-c5ccc(OC(=O)c6cccc(*)c6)cc5)cc4)c3)cc2)cc1 (repeat unit)
110.00	*CCCCCC(=O)Oc1ccc(C(C)(C)c2ccc(OC(=O)c3ccc4c(c3)C(=O)N(*)C4=O)cc2)cc1 (repeat unit)
202.10	*NNC(=O)c1ccccc1C(=O)Nc1cccc(/C=C2\CC/C(=C\c3cccc(NC(=O)c4ccccc4C(*)=O)c3)C2=O)c1 (repeat unit)
267.00	*Oc1ccc(S(=O)(=O)c2ccc(Oc3ccc(S(=O)(=O)c4ccc(-c5ccc(S(=O)(=O)c6ccc(*)cc6)cc5)cc4)cc3)cc2)cc1 (repeat unit)
194.00	*CC(c1ccccc1)C1C(=O)N(c2ccc(Oc3ccccc3)cc2)C(=O)C1* (repeat unit)
167.00	*Nc1cc(NC(=O)c2cc(OCCN(C)c3ccc(C#N)cc3)cc(C(*)=O)c2)cc(C(=O)OCCN(C)c2ccc(C#N)cc2)c1 (repeat unit)
130.00	*C(=O)Nc1cccc(N2C(=O)CC(N3C(=O)c4ccc(*)cc4C3=O)C2=O)c1 (repeat unit)
171.00	*Nc1ccc(-c2ccc(NC(=O)Cc3cc(C)c(CC(*)=O)cc3C)cc2)cc1 (repeat unit)
270.00	*c1ccc(Oc2ccc(-c3cnc4ccc(Oc5ccc6nc(*)cnc6c5)cc4n3)cc2)cc1 (repeat unit)
156.00	*Oc1ccc(-c2ccc(Oc3ccc(Oc4cccc(Oc5ccc(*)cc5)c4C)cc3)c3ccccc23)c2ccccc12 (repeat unit)
70.00	*CC(O)CN(CC(O)CN(*)c1ccccc1)c1ccc(/N=N/c2ccc([N+](=O)[O-])cc2)cc1 (repeat unit)
154.00	*Oc1ccc(-c2ccc(Oc3ccc(C(C)(C)c4ccc(*)cc4)cc3)cc2)cc1 (repeat unit)

glass transition temperature [°C]	Structure (SMILES)
157.00	*/C=C/c1ccc(-c2nnc(-c3ccc(/C=C/c4ccc5c(c4)c4cc(-c6ccc7c(c6)c6cc(*)ccc6n7CCCCCCCC)ccc4n5CCCCCCCC)cc3)n2-c2ccccc2)cc1 (repeat unit)
117.00	*SCC(=O)N/N=C/c1ccc(OCCCCCCCCCCOc2ccc(/C=N/NC(=O)CSc3nnc(*)s3)cc2)cc1 (repeat unit)
156.00	*Oc1ccc(C(=O)c2ccccc2)c(-c2cc(Oc3ccc(C(C)(C)c4ccc(*)cc4)cc3)ccc2C(=O)c2ccccc2)c1 (repeat unit)
100.00	*CC(O)COc1c(Cl)cc(C(C)(C)c2cc(Cl)c(OCC(O)COc3ccc(C(C)(C)c4ccc(O*)cc4)cc3)c(Cl)c2)cc1Cl (repeat unit)
71.00	*Oc1cc(OC(=O)c2ccc(OCC)cc2)c(OC(=O)CCCC(*)=O)cc1OC(=O)c1ccc(OCC)cc1 (repeat unit)
124.00	*Oc1ccc(C(C)(C)c2ccc(OC(=O)c3ccc(C(c4ccc(C(*)=O)cc4)(C(F)(F)F)C(F)(F)F)cc3)cc2)cc1 (repeat unit)
143.00	*c1cc(C)c(/N=C/c2ccc(OCc3ccccc3COc3ccc(/C=N/c4cc(C)c(N5C(=O)c6ccc7c8ccc9c%10c(ccc(c%11ccc(c6c7%11)C5=O)c%108)C(=O)N(*)C9=O)cc4C)cc3OC)c(OC)c2)cc1C (repeat unit)
283.00	*Oc1ccc(S(=O)(=O)c2ccc(Oc3ccc(NC(=O)c4cc(NC(=O)c5ccncc5)cc(C(=O)Nc5ccc(*)cc5)c4)cc3)cc2)cc1 (repeat unit)
273.50	*c1ccc2c(c1)C(=O)N(c1cccc(C(=O)Nc3ccc(C(c4ccc(NC(=O)c5cccc(N6C(=O)c7ccc(C(*)(C(F)(F)F)C(F)(F)F)cc7C6=O)c5)cc4)(C(F)(F)F)C(F)(F)F)cc3)c1)C2=O (repeat unit)
217.00	*c1ccc(Oc2ccc(Oc3ccc(Oc4ccc(N5C(=O)C6CCC(C7CCC8C(=O)N(*)C(=O)C8C7)CC6C5=O)cc4)cc3)cc2)cc1 (repeat unit)
178.50	*Oc1ccc(C(c2ccc(Oc3ccc(C(=O)c4ccccc4-c4ccccc4C(=O)c4ccc(*)cc4)cc3)cc2)(C(F)(F)F)C(F)(F)F)cc1 (repeat unit)
83.00	*Oc1ccc(OC(=O)c2ccc(C(*)=O)cc2Oc2ccc(Oc3ccccc3)cc2)cc1 (repeat unit)
396.50	*Oc1cccc(Oc2ccc3c(=O)n4c5cc(-c6ccc7c(c6)nc6c8ccc(*)c9cccc(c(=O)n76)c98)ccc5nc4c4cccc2c34)c1 (repeat unit)
287.00	*c1cccc(C(=O)c2c(C)cc(C)c(N3C(=O)c4ccc(Oc5ccc6c(c5)C(=O)N(*)C6=O)cc4C3=O)c2C)c1 (repeat unit)
292.00	*C(=O)c1ccc2c(c1)C(=O)N(c1cccc(C(O)c3cccc(N4C(=O)c5ccc(*)cc5C4=O)c3)c1)C2=O (repeat unit)
149.00	*Oc1ccc(C(C)(c2ccccc2)c2ccc(OC(=O)OC3C(C)(C)C(OC(*)=O)C3(C)C)cc2)cc1 (repeat unit)
